Experimental data as given in US20230219963A1, “PYRROLO[2,3-D]PYRIMIDINE DERIVATIVES” (Pfizer Inc., priority 2020, published 2023).

Experiments:
Format in all cases: cell-based
TSLP induced pSTAT5 = experiment: TSLP-induced pSTAT5 in human whole blood (CD3+ cells); conditions: JAK1/JAK2, read-out: TSLP induced pSTAT5, cellular potency IC50
Protocol: (§1) Human whole blood was collected from healthy donors via vein puncture into Vacutainer collection tubes containing sodium heparin in accordance with Pfizer protocols (Protocol No. GOHW RDP-01) approved by the Shulman Institutional Review Board. Blood was warmed to 37° C. priorto use. Human whole blood was aliquoted (90 μL/well) in 96-well, deep-well, V-bottom plates and treated with compounds (5 μL/well) at different concentrations up to 60 μM (0.2% DMSO final) at 37° C. for 60 minutes. This was followed by a challenge with IFNα (5000 U/mL), IFNγ (100 ng/mL), IL-6 (50 ng/mL), IL-10 (30 ng/mL), IL-12 (30 ng/mL), IL-15 (30 ng/mL), IL-21 (50 ng/mL), IL-23 (25 ng/mL), IL-27 (1000 ng/mL), EPO (2 U/mL), TSLP (50 ng/mL) or PBS and incubated for 15 minutes. Anti-cell surface antibodies were added 15 minutes prior to cytokine stimulation; anti-CD3-BV421 (0.5 μL/well) to IL-6-treated and TSLP-treated samples and anti-CD14-BV421 (0.5 μL/well) to IFNγ-treated samples. Samples were treated with warm 1×Lyse/Fix buffer (700 μL/well) to terminate activation and further incubated at 37° C. for 20 minutes to lyse red blood cells. Plates were centrifuged at 300×g for 5 minutes, supernatant was aspirated, and cells were washed with 800 μL/well of staining buffer (D-PBS containing 0.1% FBS and 0.01% sodium azide). Washed cell pellets were resuspended in 350 μL/well of prechilled 90% methanol and incubated at 4° C. for 30 minutes. After the removal of 90% methanol, cells were washed once with staining buffer. […]
(§2) After overnight incubation at 4° C., anti-pSTAT stained samples were transferred into 96-well polypropylene U-bottom plates and flow cytometric analysis was performed on a LSR Fortessa™ equipped with a HTS plate loader. […] Background fluorescence was defined using unstimulated cells and a gate was placed at the foot of the peak to include ˜0.5% gated population. […]

IL-27 induced pSTAT3 = experiment: IL-27-induced pSTAT3 in human whole blood (lymphocytes); conditions: Lymphocyte, JAK1/JAK2, read-out: IL-27 induced pSTAT3, cellular potency IC50
Protocol: as §1, with “buffer. All samples were finally suspended in 150 μL/well of the desired anti-phospho-STAT antibodies at 1:150 dilution in staining buffer; anti-pSTAT1-AF647 in IFNγ treated samples; anti-pSTAT1-AF488 and anti-pSTAT3-AF647 in IL-6-treated samples, anti-pSTAT3-AF647 in IFNα, IL-10, IL-21, IL-23 and IL-27 treated samples, anti-pSTAT4-AF647 in IL-12 treated samples, anti-pSTAT5-AF-647 in EPO, IL-15 and TSLP-treated samples. Human primary keratinocytes were cultured in DermaLife™ medium with supplement kit to expand cell population. Cell passages 2 to 5 were used in the assays. Cells were harvested at ˜80% confluence, suspended in warm DermaLife™ medium, aliquoted (90 μL/well) in 96-well, deep-well, V-bottom plates, and incubated at 37° C. for 30 minutes. Cells were then treated with compounds (0.0003 to 20 μM) for 60 minutes and followed by stimulation with IL-4 (2 ng/mL) or IL-13 (20 ng/mL) at 37° C. for 15 minutes.” for “buffer.”
as §2

IL-31 induced pSTAT3 = experiment: IL-31-induced pSTAT3 in IFNγ-primed THP-1 cells; conditions: Homo sapiens, JAK1/JAK2, read-out: IL-31 induced pSTAT3, cellular potency IC50
Protocol: THP-1 cells were maintained in RPMI 1640 medium containing 10% FBS, 50 μM 2 mercaptoethanol, 50 U/mL penicillin, 50 µg/mL streptomycin and 2 mM L-glutamine. THP 1 cells were treated with IFNγ (20 ng/mL) for 18 hours. IFNγ primed THP-1 cells were resuspended in fresh RPMI 1640 medium, treated with compounds (0.0003 to 20 μM) for 60 minutes, followed by stimulation with IL-31 (1 μg/mL) for additional 10 minutes. Cells were then fixed by 2% paraformaldehyde and permeabilized by 90% methanol. Fixed and permeabilized cells were stained with AlexaFluor647™ labeled anti-pSTAT3 antibody (1 to 150 dilution).
After overnight incubation at 4° C., anti-pSTAT stained samples were transferred into 96-well polypropylene U-bottom plates and flow cytometric analysis was performed on a LSR Fortessa™ equipped with a HTS plate loader. For human whole blood samples, lymphocyte population was gated for pSTAT histogram analysis for IFNα, IL-10, IL-12, IL-15, IL-21, IL-23, and IL-27-treated samples; CD14^+ cells for IFNγ-treated samples; CD3^+ cells for IL-6 and TSLP-treated samples; all events (entire populations) for EPO-treated samples. Entire populations of keratinocytes and THP-1 cells were gated for the IL-4, IL-13, IL-22 and IL-31 assays. Background fluorescence was defined using unstimulated cells and a gate was placed at the foot of the peak to include ˜0.5% gated population. Histogram statistical analysis was performed using FACSDiva version 8.0. Relative fluorescence unit, which measures the level of pSTAT, was calculated by multiplying the percent positive population and its mean fluorescence. Inhibition curves and half maximal inhibitory concentration (IC50) values were determined using Prism™ software (Version 8) or the Activity Base data analysis software (ID Business Solutions).

IL-6 induced pSTATI = experiment: IL-6-induced pSTAT1 in human whole blood (CD3+ cells); conditions: JAK1/JAK2, read-out: IL-6 induced pSTATI, cellular potency IC50
Protocol: as §1, with “buffer. All samples were finally suspended in 150 μL/well of the desired anti-phospho-STAT antibodies at 1:150 dilution in staining buffer; anti-pSTAT1-AF647 in IFNγ treated samples; anti-pSTAT1-AF488 and anti-pSTAT3-AF647 in IL-6-treated samples, anti-pSTAT3-AF647 in IFNα, IL-10, IL-21, IL-23 and IL-27 treated samples, anti-pSTAT4-AF647 in IL-12 treated samples, anti-pSTAT5-AF-647 in EPO, IL-15 and TSLP-treated samples. Human primary keratinocytes were cultured in DermaLife™ medium with supplement kit to expand cell population. Cell passages 2 to 5 were used in the assays. Cells were harvested at ˜80% confluence, suspended in warm DermaLife™ medium, aliquoted (90 μL/well) in 96-well, deep-well, V-bottom plates, and incubated at 37° C. for 30 minutes. Cells were then treated with compounds (0.0003 to 20 μM) for 60 minutes and followed by stimulation with IL-4 (2 ng/mL) or IL-13 (20 ng/mL) at 37° C. for 15 minutes.” for “buffer.”
as §2

IL-15 induced pSTAT5 = experiment: IL-15-induced pSTAT5 in human whole blood (lymphocytes); conditions: Lymphocyte, JAK1/JAK3, read-out: IL-15 induced pSTAT5, cellular potency IC50
Protocol: as §1, with “buffer. All samples were finally suspended in 150 μL/well of the desired anti-phospho-STAT antibodies at 1:150 dilution in staining buffer; anti-pSTAT1-AF647 in IFNγ treated samples; anti-pSTAT1-AF488 and anti-pSTAT3-AF647 in IL-6-treated samples, anti-pSTAT3-AF647 in IFNα, IL-10, IL-21, IL-23 and IL-27 treated samples, anti-pSTAT4-AF647 in IL-12 treated samples, anti-pSTAT5-AF-647 in EPO, IL-15 and TSLP-treated samples. Human primary keratinocytes were cultured in DermaLife™ medium with supplement kit to expand cell population. Cell passages 2 to 5 were used in the assays. Cells were harvested at ˜80% confluence, suspended in warm DermaLife™ medium, aliquoted (90 μL/well) in 96-well, deep-well, V-bottom plates, and incubated at 37° C. for 30 minutes. Cells were then treated with compounds (0.0003 to 20 μM) for 60 minutes and followed by stimulation with IL-4 (2 ng/mL) or IL-13 (20 ng/mL) at 37° C. for 15 minutes.” for “buffer.”
as §2

IL-13 induced pSTAT6 = experiment: IL-13-induced pSTAT6 in human keratinocytes; conditions: Keratinocyte, JAK1/JAK2, read-out: IL-13 induced pSTAT6, cellular potency IC50
Protocol: as §1, §2

IC50 (TSLP induced pSTAT5): 1020 nM | IC50 (IL-27 induced pSTAT3): 228 nM | IC50 (IL-31 induced pSTAT3): 40 nM | IC50 (IL-6 induced pSTATI): 343 nM | IC50 (IL-15 induced pSTAT5): 537 nM | IC50 (IL-13 induced pSTAT6): 81.9 nM
Compound: CCCS(=O)(=O)N[C@H]1C[C@@H](N(C)c2ncnc3[nH]ccc23)C1 [Abrocitinib, N-((1S,3S)-3-(Methyl(7H-pyrrolo[2,3-d]pyrimidin-4-yl)amino)cyclo-butyl)propane-1-sulfonamide, reference compound]
